Experimental data reported in ChEMBL document CHEMBL4419121, “Tetrahydropyridopyrazines modulators of gpr6” (2018).

Molecular target: T1, G-protein coupled receptor 6 (Homo sapiens, UniProt P46095)
Test: Modulation activity at GPR6 receptor (unknown origin) expressed in CHO-K1 cells assessed as inhibition of constitutive cAMP activity incubated for 45 mins by Perkin Elmer Lance HTRF Ultrac-AMP assay
Type: functional, cell-based
Conditions: not given

T1 sequence (P46095 whole entry): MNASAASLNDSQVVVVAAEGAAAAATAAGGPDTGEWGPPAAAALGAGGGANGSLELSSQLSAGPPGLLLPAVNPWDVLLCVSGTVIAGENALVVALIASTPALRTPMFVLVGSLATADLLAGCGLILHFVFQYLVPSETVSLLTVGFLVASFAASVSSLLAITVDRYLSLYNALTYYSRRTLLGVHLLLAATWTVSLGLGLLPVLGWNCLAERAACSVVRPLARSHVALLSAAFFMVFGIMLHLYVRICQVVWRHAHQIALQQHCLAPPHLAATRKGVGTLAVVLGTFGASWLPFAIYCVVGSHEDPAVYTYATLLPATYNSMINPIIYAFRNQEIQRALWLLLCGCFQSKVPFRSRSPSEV

Row | IC50 | Compound
1 | 76 nM | CC(=O)N1CCc2nc(NCC(F)F)c(N3CCC(Oc4ccc(F)cc4F)CC3)nc2C1C (centres undefined)
2 | 18 nM | CC(C)Nc1nc2c(nc1N1CCC(Oc3ccc(F)cc3F)CC1)CN(C(=O)CC#N)CC2
3 | 111 nM | CO[C@@H](C)C(=O)N1CCc2nc(N3CCC(Oc4ccc(F)cc4F)CC3)c(NCC(F)F)nc2C1
4 | 12 nM | COc1ccc(OC2CCN(c3nc4c(nc3NC3CCC3)CCN(C(C)=O)C4)CC2)c(F)c1
5 | 6.6 nM | CO[C@H](C)C(=O)N1CCc2nc(NCC(F)F)c(N3CCC(Oc4ccc(F)cc4F)CC3)nc2C1
6 | 14.9 nM | COCCNC(=O)N1CCc2nc(NC(C)C)c(N3CCC(Oc4ccc(F)cc4F)CC3)nc2C1
7 | 13.8 nM | COc1ccc(OC2CCN(c3nc4c(nc3NC3CCC3)CCN(C(=O)N(C)C)C4)CC2)c(F)c1
8 | 87 nM | CC1c2nc(NCC(F)F)c(N3CCC(Oc4ccc(F)cc4F)CC3)nc2CCN1S(C)(=O)=O (centres undefined)
9 | 24.9 nM | CC(C)Nc1nc2c(nc1N1CCC(C(=O)c3cc(Cl)ccc3F)CC1)CN(C(=O)N(C)C)CC2
10 | 149 nM | CC(C)Nc1nc2c(nc1N1CCC(Oc3ccc(F)cc3F)CC1)CCN(S(=O)(=O)C(C)C)C2
11 | 23.9 nM | CC1Cc2nc(NCC(F)F)c(N3CCC(Oc4ccc(F)cc4F)CC3)nc2CN1C(=O)C1CC1 (centres undefined)
12 | 57.2 nM | CS(=O)(=O)N1CCc2nc(N3CCC(Oc4ccc(F)cc4F)CC3)c(NCC(F)F)nc2C1
13 | 16.6 nM | COc1ccc(OC2CCN(c3nc4c(nc3NC(C)C)CCN(C(=O)N(C)C)C4)CC2)c(F)c1
14 | 8.3 nM | CO[C@@H](C)C(=O)N1CCc2nc(NCC(F)F)c(N3CCC(Oc4ccc(F)cc4F)CC3)nc2C1
15 | 208 nM | COCC(=O)N1CCc2nc(N3CCC(Oc4ccc(F)cc4F)CC3)c(NCC(F)F)nc2C1C (centres undefined)
16 | 20.9 nM | CO[C@@H](C)C(=O)N1Cc2nc(N3CCC(Oc4ccc(F)cc4F)CC3)c(NCC(F)F)nc2CC1C (some centres undefined)
17 | 10.4 nM | CC(C)Nc1nc2c(nc1N1CCC(Oc3ccc(F)cc3F)CC1)CCN(C(=O)N(C)C)C2
18 | 38.7 nM | CC(C)Nc1nc2c(nc1N1CCC(Oc3ccc(F)cc3F)CC1)CCN(C(=O)c1ccno1)C2
19 | 16.8 nM | COC(C)C(=O)N1CCc2nc(N3CCC(Oc4ccc(F)cc4F)CC3)c(NC(C)C)nc2C1 (centres undefined)
20 | 88 nM | CC(=O)N1CCc2nc(NC(C)C)c(N3CCC(Oc4ccc(F)cc4F)CC3)nc2C1C (centres undefined)
21 | 15.2 nM | CN1CCc2nc(NC3CC3)c(N3CCC([C@H](F)c4ccc(F)cc4F)CC3)nc2C1

Molecular target: T1, G-protein coupled receptor 6
Test: Modulation activity at GPR6 receptor (unknown origin) expressed in CHO-K1 cells assessed as inhibition of constitutive cAMP activity incubated for 45 mins in presence of 300 uM IBMX by Perkin Elmer Lance HTRF Ultrac-AMP assay
Type: functional, cell-based
Conditions: not given

Row | IC50 | Compound
22 | > 1000 nM | COC[C@@H](C)Nc1nc2c(nc1N1CCC(Oc3ccc(F)cc3F)CC1)CCN(C(C)=O)C2
23 | 33.7 nM | [2H]C([2H])([2H])C(=O)N1CCc2nc(N3CCC(Oc4ccc(F)cc4F)CC3)c(NC(C)C)nc2C1
24 | 107 nM | COC[C@H](C)Nc1nc2c(nc1N1CCC(Oc3ccc(F)cc3F)CC1)CCN(C(C)=O)C2

Same assay, conditions: cho-k1

Row | IC50 | Compound
25 | 37.8 nM | CC(=O)N1CCc2nc(N3CCC([C@@H](F)c4ccc(F)cc4F)CC3)c(NC(C)C)nc2C1
26 | 193 nM | CC1c2nc(N3CCC(Oc4ccc(F)cc4F)CC3)c(NCC(F)F)nc2CCN1C(=O)C(F)F (centres undefined)
27 | 93.5 nM | CC1c2nc(N3CCC(Oc4ccc(F)cc4F)CC3)c(NCC(F)F)nc2CCN1C(=O)N(C)C (centres undefined)
28 | 342 nM | COc1cccc(S(=O)(=O)C2CCN(c3nc4c(nc3NC(C)C)CCN(C(C)=O)C4)CC2)c1
29 | 247 nM | CC(=O)N1CCc2nc(NC(C)C)c(N3CCC(S(=O)(=O)c4ccccc4F)CC3)nc2C1
30 | 59.1 nM | CCC(=O)N1CCc2nc(N3CCN(Cc4ccc(F)cc4F)CC3)c(N[C@H]3CCOC3)nc2C1
31 | 27.9 nM | CC(C)Nc1nc2c(nc1N1CCN(Cc3ccc(F)cc3F)CC1)CCN(S(C)(=O)=O)C2
32 | 340 nM | CC(C)Nc1nc2c(nc1N1CCC(Oc3ccc(F)cc3F)CC1)CCN(C(=O)C1CC1)C2
33 | 61.8 nM | CC(C)Nc1nc2c(nc1N1CCC(Oc3ccc(F)cc3F)CC1)CCN(S(C)(=O)=O)C2
34 | 179 nM | CC(C)Nc1nc2c(nc1N1CCC(Oc3ccc(F)cc3F)CC1)C(C)N(C(=O)N(C)C)CC2 (centres undefined)
35 | 29 nM | CC(C)Nc1nc2c(nc1N1CCN(Cc3ccc(F)cc3F)CC1)CCN(C(=O)C(C)C)C2
36 | 30.9 nM | CCC(=O)N1CCc2nc(N3CCN(Cc4ccc(F)cc4F)CC3)c(NC(C)C)nc2C1
37 | 35.9 nM | CC(=O)N1CCc2nc(N3CCC(Oc4ccc(F)cc4F)CC3)c(NC3CC(F)(F)C3)nc2C1
38 | 73.2 nM | CC(=O)N1CCc2nc(N3CCC(Oc4ccc(F)cc4F)CC3)c(NC(C)C)nc2C1C (centres undefined)
39 | 90.1 nM | CC(C)Nc1nc2c(nc1N1CCC(Oc3ccc(F)cc3F)CC1)CCN(C)C2
40 | 122 nM | CC(=O)N1CCc2nc(N3CCN(Cc4ccc(F)cc4F)CC3)c(N[C@H]3C[C@@H](O)C3)nc2C1
41 | 250 nM | CC(=O)N1CCc2nc(NC(C)C)c(N3CCC(S(=O)(=O)c4cccc(F)c4)CC3)nc2C1
42 | 319 nM | CC[C@@H](C)Nc1nc2c(nc1N1CCC(Oc3ccc(F)cc3F)CC1)CCN(C(C)=O)C2
43 | 39.2 nM | CCC(=O)N1CCc2nc(N3CCC(Oc4ccc(F)cc4F)CC3)c(N[C@H]3CCOC3)nc2C1
44 | 132 nM | COC(=O)N1CCc2nc(NC(C)C)c(N3CCC(Oc4ccc(F)cc4F)CC3)nc2C1
45 | 220 nM | CC(=O)O[C@H]1C[C@@H](Nc2nc3c(nc2N2CCN(Cc4ccc(F)cc4F)CC2)CCN(C(C)=O)C3)C1
46 | 43.2 nM | CC(C)Nc1nc2c(nc1N1CCC(Oc3ccc(F)cc3F)CC1)CN(C=O)CC2

Row | IC50 | Compound
47 | 114 nM | CC(=O)O[C@H]1C[C@@H](Nc2nc3c(nc2N2CCC(Oc4ccc(F)cc4F)CC2)CCN(C(C)=O)C3)C1
48 | 43.7 nM | CC(=O)N1CCc2nc(N3CCN(Cc4ccc(F)cc4F)CC3)c(NC3CCC3)nc2C1
49 | 111 nM | O=C(C(F)F)N1CCc2nc(NCC(F)F)c(N3CCC(Oc4ccc(F)cc4F)CC3)nc2C1
50 | 59.3 nM | CC(C)Nc1nc2c(nc1N1CCC(Oc3ccc(F)cc3F)CC1)CCN(S(C)(=O)=O)C2C (centres undefined)
51 | 604 nM | CC(=O)O[C@H]1C[C@H](Nc2nc3c(nc2N2CCC(Oc4ccc(F)cc4F)CC2)CCN(C(C)=O)C3)C1
52 | 61.5 nM | CC(=O)N1CCc2nc(N3CCC(Oc4ccc(F)cc4F)CC3)c(N[C@H]3C[C@@H](O)C3)nc2C1
53 | 59.5 nM | CC(C)Nc1nc2c(nc1N1CCC(Oc3ccc(F)cc3F)CC1)CN(C)CC2
54 | 95.6 nM | CC(C)Nc1nc2c(nc1N1CCC(Oc3ccc(F)cc3F)CC1)CN(S(C)(=O)=O)CC2
55 | 110 nM | CC(C)Nc1nc2c(nc1N1CCC(Oc3ccc(F)cc3F)CC1)CCN(C(=O)N(C)C)C2C (centres undefined)
56 | 78.1 nM | CC(C)Nc1nc2c(nc1N1CCC(Oc3ccc(F)cc3F)CC1)CCN(C(=O)[C@@H]1CCCN1C)C2
57 | 78 nM | CC(=O)N1CCc2nc(N3CCC(Oc4ccc(F)cc4F)CC3)c(N[C@H]3C[C@H](O)C3)nc2C1
58 | 129 nM | CC(C)Nc1nc2c(nc1N1CCC(Oc3ccc(F)cc3F)CC1)CCN(C(=O)C(F)F)C2
59 | 23.6 nM | CC(C)Nc1nc2c(nc1N1CCC([C@@H](F)c3ccc(F)cc3F)CC1)CCN(C=O)C2
60 | 62 nM | CC[C@H](C)Nc1nc2c(nc1N1CCC(Oc3ccc(F)cc3F)CC1)CCN(C(C)=O)C2
61 | 49.7 nM | CC(=O)N1CCc2nc(N3CCC(Oc4ccc(F)cc4F)CC3)c(NCC(F)F)nc2C1
62 | 27.6 nM | CCC(=O)N1CCc2nc(N3CCC(Oc4ccc(F)cc4F)CC3)c(NC(C)C)nc2C1
63 | 71.5 nM | COCC(=O)N1CCc2nc(N3CCC(Oc4ccc(F)cc4F)CC3)c(NC(C)C)nc2C1
64 | 212 nM | CC1c2nc(NCC(F)F)c(N3CCC(Oc4ccc(F)cc4F)CC3)nc2CCN1C(=O)C(F)F (centres undefined)
65 | 130 nM | COC(=O)N1CCc2nc(N3CCC(Oc4ccc(F)cc4F)CC3)c(NC(C)C)nc2C1
66 | 116 nM | CC(C)Nc1nc2c(nc1N1CCC(Oc3ccc(F)cc3F)CC1)C(C)N(C(=O)C(F)F)CC2 (centres undefined)
67 | 63.2 nM | CC(=O)N1CCc2nc(N3CCN(Cc4ccc(F)cc4F)CC3)c(N[C@@H]3CCOC3)nc2C1
68 | 11.4 nM | CC(C)Nc1nc2c(nc1N1CCC([C@H](F)c3ccc(F)cc3F)CC1)CCN(C=O)C2

Row | IC50 | Compound
69 | 55 nM | CC(=O)N1CCc2nc(N3CCC(Oc4ccc(F)cc4F)CC3)c(NC3CCC3)nc2C1
70 | 188 nM | CC(=O)N1CCc2nc(NC(C)C)c(N3CCC(S(=O)(=O)c4ccc(F)cc4)CC3)nc2C1
71 | 74.1 nM | COc1ccc(OC2CCN(c3nc4c(nc3NC(C)C)CN(C(C)=O)CC4)CC2)c(F)c1
72 | 200 nM | COc1ccc(S(=O)(=O)C2CCN(c3nc4c(nc3NC(C)C)CCN(C(C)=O)C4)CC2)c(F)c1
73 | 95 nM | CC(C)Nc1nc2c(nc1N1CCC(Oc3ccc(F)cc3F)CC1)CCN(C(=O)C(F)F)C2C (centres undefined)
74 | 74.8 nM | CC(C)Nc1nc2c(nc1N1CCC(Oc3ccc(F)cc3F)CC1)CCN(CCF)C2
75 | 69.2 nM | CC(C)Nc1nc2c(nc1N1CCC(Oc3ccc(F)cc3F)CC1)CN(CCF)CC2
76 | 200 nM | CC(C)Nc1nc2c(nc1N1CCC(Oc3ccc(F)cc3F)CC1)CN(CC(F)F)CC2
77 | 49.3 nM | CS(=O)(=O)N1CCc2nc(N3CCC(Oc4ccc(F)cc4F)CC3)c(NC3CCC3)nc2C1
78 | 17.1 nM | CC(C)Nc1nc2c(nc1N1CCC(C(F)c3ccc(F)cc3F)CC1)CN(C)CC2 (centres undefined)
79 | 27 nM | CC(=O)N1CCc2nc(N3CCN(Cc4ccc(F)cc4F)CC3)c(NC(C)C)nc2C1
80 | 211 nM | CC(C)Nc1nc2c(nc1N1CCC(Oc3ccc(F)cc3F)CC1)CN(C(=O)C1CC1)CC2
81 | 363 nM | CC(=O)N1CCc2nc(N3CCN(Cc4ccc(C#N)cc4F)CC3)c(NC(C)C)nc2C1
82 | 62.5 nM | COc1ccc(OC2CCN(c3nc4c(nc3NC(C)C)CCN(C(C)=O)C4)CC2)c(F)c1
83 | 79.5 nM | COCC(=O)N1CCc2nc(NCC(F)F)c(N3CCC(Oc4ccc(F)cc4F)CC3)nc2C1
84 | 30.3 nM | CC(C)Nc1nc2c(nc1N1CCC(C(F)c3ccc(F)cc3F)CC1)CCN(C)C2 (centres undefined)
85 | 163 nM | CS(=O)(=O)N1CCc2nc(NCC(F)F)c(N3CCC(Oc4ccc(F)cc4F)CC3)nc2C1
86 | 186 nM | CC(=O)N1CCc2nc(N3CCN(Cc4ccc(F)cc4F)CC3)c(N[C@H]3C[C@H](F)C3)nc2C1
87 | 97.8 nM | CC(=O)N1CCc2nc(N3CCN(Cc4ccc(F)cc4F)CC3)c(N[C@H]3CCOC3)nc2C1
88 | 27.4 nM | CC(=O)N1CCc2nc(N3CCC([C@H](F)c4ccc(F)cc4F)CC3)c(NC(C)C)nc2C1
89 | 140 nM | COc1ccc(OC2CCN(c3nc4c(nc3NC(C)C)CN(C)CC4)CC2)c(F)c1
